In paper PMC6934184, “Selective DNA-PKcs inhibition extends the therapeutic index of localized radiotherapy and chemotherapy” (The Journal of Clinical Investigation, 2019):

Molecular target: T1, EPHB2 (Homo sapiens, UniProt P29323)
T1 construct: purchased Thermo Fisher Scientific (Life Technologies) SelectScreen
Assay: SelectScreen Z'LYTE
Type: biochemical
Summary of the method: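 NU5455 was profiled across the SelectScreen Broad panel of kinase activity and binding assays. Z'LYTE reactions such as CSF1R ran at apparent Km ATP, while the Adapta CAMK1 assay used ATP listed as 10. Values are given as percent.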

T1 sequence (P29323 19-1055): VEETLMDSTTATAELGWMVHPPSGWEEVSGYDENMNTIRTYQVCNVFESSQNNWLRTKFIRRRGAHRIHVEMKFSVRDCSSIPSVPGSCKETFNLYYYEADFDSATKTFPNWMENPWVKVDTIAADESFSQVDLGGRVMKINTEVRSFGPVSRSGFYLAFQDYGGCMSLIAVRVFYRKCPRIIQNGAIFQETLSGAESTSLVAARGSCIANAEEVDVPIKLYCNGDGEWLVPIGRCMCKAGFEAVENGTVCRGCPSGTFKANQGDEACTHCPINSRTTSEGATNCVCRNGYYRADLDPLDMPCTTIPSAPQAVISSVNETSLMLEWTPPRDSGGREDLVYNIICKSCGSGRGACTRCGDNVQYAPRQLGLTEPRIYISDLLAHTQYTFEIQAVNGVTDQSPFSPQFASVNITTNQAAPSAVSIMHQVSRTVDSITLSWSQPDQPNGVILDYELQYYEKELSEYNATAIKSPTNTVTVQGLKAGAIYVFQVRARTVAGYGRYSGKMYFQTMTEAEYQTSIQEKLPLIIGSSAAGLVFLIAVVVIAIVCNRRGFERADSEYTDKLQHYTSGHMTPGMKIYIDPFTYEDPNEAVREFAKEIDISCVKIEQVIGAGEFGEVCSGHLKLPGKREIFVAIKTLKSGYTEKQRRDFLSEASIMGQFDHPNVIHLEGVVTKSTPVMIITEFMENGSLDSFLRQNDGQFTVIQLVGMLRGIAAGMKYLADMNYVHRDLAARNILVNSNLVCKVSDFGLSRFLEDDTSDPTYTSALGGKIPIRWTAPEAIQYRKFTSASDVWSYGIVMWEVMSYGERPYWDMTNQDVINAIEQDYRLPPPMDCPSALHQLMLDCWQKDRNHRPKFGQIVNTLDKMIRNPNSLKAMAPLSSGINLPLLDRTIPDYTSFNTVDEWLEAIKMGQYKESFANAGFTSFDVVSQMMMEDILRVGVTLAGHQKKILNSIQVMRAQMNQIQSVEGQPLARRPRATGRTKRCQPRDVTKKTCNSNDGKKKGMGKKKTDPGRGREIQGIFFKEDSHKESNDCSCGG

## CN(C(=O)CN1CCOCC1)c1ccc2sc3c(-c4cccc5c(=O)cc(N6CC7CCC(C6)O7)oc45)cccc3c2c1 [NU5455]
  inhibition at 1 µM: -0.1%
